Experimental data reported in ChEMBL document CHEMBL1201862, “PubChem BioAssay data set” (2004).
The source made the active and inactive calls.

Columns and labels:
[1] = molecular target: T1, Adenosylmethionine-8-amino-7-oxononanoate aminotransferase (Mycobacterium tuberculosis, UniProt P9WQ81); assay: Mycobacterium tuberculosis BioA enzyme inhibitor Measured in Biochemical System Using Plate Reader - 2163-02_Inhibitor_Dose_CherryPick_Activity.; assay type: functional, Mycobacterium tuberculosis UT205
T1 sequence (P9WQ81 whole entry): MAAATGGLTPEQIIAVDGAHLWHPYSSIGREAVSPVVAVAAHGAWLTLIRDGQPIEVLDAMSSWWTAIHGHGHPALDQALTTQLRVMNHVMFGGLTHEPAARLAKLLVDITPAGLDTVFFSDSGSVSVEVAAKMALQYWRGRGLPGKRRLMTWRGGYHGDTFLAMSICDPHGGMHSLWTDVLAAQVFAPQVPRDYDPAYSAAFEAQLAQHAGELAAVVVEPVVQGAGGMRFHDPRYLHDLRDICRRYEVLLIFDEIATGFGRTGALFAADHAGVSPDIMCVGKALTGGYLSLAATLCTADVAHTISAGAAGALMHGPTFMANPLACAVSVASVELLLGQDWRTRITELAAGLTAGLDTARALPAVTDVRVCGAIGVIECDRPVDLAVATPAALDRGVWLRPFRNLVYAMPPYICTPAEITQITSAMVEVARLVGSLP

[2] = molecular target: T2, High affinity choline transporter 1 (Homo sapiens, UniProt Q9GZV3); assay: human choline transporter blockers, potency – cell-based, 10-point CRC, membrane potential dye, dose response (AID 588401); assay type: functional;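 note: membrane potential dye fluorescence of choline-evoked depolarization via CHT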
T2 sequence (Q9GZV3 whole entry): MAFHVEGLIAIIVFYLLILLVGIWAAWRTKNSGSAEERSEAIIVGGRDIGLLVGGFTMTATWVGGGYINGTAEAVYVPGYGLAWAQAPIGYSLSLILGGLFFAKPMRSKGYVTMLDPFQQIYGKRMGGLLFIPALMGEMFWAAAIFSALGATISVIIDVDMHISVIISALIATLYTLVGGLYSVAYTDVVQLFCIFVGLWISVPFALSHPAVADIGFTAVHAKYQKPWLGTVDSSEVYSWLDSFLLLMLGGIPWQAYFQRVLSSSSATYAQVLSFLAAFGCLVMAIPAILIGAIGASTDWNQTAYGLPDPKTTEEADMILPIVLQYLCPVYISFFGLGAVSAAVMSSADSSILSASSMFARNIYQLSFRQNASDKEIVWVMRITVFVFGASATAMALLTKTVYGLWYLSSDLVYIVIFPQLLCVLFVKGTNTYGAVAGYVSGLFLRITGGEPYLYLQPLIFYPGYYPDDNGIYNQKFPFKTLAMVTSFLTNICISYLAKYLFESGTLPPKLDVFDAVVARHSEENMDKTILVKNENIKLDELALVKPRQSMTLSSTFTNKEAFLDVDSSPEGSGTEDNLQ

[3] = molecular target: T2, High affinity choline transporter 1; assay: human choline transporter blockers, potency – cell-based, 5-point CRC, membrane potential dye, dose response (AID 504840); assay type: functional
[4] = A Cell Based Secondary Assay To Explore Cytotoxicity of Compounds that Sensitize Mycobacterium Tuberculosis to Beta-Lactam Antibiotics.; assay type: functional
Melanocortin receptor 4 = Melanocortin receptor 4 (Homo sapiens, UniProt P32245); assay: inhibitors of MC4R cAMP signaling – cell-based, TR-FRET, biased antagonists, dose response (AID 602298); assay type: functional;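 note: antagonist potency against agonist-stimulated cAMP production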
Melanocortin receptor 4, sequence (P32245 whole entry): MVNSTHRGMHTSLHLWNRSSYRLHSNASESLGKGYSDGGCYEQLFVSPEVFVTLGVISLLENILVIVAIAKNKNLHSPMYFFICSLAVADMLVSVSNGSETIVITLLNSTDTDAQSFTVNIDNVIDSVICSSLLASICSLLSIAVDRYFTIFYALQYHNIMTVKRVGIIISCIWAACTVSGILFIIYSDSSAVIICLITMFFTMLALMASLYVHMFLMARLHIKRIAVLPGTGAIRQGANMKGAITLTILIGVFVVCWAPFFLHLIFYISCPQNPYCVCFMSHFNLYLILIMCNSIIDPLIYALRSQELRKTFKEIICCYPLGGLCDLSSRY

[5] = cAMP pathway inhibition in counterscreen cell line – TR-FRET cAMP detection, counter-screen for MC4R biased antagonist project, dose response (AID 602305); assay type: functional, cell-based;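 note: U2OS cells stimulated with forskolin near its EC80 as the cAMP inducer; potency is for inhibition of forskolin-stimulated cAMP signaling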
[6] = molecular target: T3, Zinc finger protein mex-5 (Caenorhabditis elegans, UniProt Q9XUB2); assay: potency of MEX-5 RNA-binding blockers – biochemical, C. elegans, fluorescence polarization, dose response (AID 1960)
T3 sequence (Q9XUB2 whole entry): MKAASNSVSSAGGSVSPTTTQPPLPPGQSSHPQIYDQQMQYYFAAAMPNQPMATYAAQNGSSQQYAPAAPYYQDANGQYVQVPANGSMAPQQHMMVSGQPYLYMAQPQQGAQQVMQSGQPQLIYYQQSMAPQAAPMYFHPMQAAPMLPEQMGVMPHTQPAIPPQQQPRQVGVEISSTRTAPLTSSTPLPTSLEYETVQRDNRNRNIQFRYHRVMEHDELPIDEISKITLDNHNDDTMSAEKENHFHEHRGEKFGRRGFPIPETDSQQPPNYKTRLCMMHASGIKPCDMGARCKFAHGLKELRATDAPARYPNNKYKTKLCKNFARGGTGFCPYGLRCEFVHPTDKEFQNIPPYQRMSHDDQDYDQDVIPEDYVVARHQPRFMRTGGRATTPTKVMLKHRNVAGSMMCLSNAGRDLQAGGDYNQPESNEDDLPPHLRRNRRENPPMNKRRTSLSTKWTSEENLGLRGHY

[7] = molecular target: DNA (cytosine-5)-methyltransferase 1 (Homo sapiens, UniProt P26358); assay: inhibition of DNA methylation by DNMT1 – biochemical, fluorescent molecular beacon, confirmation (AID 602386); assay type: functional
DNA (cytosine-5)-methyltransferase 1, sequence (P26358 whole entry, the tested form may be a part): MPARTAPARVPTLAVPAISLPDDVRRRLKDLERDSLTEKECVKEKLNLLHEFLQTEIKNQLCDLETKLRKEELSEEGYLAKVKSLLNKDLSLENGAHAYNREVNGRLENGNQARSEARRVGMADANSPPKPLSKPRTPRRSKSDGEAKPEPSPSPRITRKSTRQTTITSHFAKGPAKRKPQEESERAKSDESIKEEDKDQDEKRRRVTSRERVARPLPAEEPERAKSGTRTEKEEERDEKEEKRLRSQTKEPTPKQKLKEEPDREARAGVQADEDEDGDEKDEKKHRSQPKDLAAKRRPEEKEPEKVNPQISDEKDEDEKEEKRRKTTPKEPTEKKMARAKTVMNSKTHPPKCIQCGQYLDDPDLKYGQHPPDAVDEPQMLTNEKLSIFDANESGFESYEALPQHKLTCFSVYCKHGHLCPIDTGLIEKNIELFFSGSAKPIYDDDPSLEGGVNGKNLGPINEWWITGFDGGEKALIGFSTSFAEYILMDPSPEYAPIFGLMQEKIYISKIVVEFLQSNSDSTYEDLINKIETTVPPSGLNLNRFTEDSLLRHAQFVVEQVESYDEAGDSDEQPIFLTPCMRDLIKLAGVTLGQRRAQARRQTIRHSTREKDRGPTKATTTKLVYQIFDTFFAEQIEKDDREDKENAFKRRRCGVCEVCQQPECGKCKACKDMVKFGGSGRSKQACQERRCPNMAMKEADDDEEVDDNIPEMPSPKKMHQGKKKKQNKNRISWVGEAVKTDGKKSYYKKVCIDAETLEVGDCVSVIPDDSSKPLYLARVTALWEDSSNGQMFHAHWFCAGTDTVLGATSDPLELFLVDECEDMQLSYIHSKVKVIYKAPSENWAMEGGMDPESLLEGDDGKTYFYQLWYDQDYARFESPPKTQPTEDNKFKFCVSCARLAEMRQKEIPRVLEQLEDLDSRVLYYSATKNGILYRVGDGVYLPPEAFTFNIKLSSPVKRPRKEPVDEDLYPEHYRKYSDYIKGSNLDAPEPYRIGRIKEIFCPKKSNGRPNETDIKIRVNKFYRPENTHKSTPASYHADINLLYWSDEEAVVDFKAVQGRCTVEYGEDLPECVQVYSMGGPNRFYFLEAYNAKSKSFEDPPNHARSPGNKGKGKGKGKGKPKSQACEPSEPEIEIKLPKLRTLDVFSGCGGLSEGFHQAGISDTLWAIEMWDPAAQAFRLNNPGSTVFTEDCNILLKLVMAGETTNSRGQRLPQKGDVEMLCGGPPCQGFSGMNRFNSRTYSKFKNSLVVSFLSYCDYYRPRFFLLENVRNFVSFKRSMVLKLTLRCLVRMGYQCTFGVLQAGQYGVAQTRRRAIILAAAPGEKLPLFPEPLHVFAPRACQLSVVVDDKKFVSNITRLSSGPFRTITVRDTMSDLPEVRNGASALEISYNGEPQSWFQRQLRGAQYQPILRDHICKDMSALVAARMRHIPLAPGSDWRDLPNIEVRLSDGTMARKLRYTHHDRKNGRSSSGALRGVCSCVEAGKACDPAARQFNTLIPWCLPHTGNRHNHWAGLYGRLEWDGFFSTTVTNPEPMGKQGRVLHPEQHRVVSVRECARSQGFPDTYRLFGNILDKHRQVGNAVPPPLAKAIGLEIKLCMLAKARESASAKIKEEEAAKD

[8] = molecular target: T4, RNA-binding protein pos-1 (Caenorhabditis elegans, UniProt G5EF15); assay: disruptors of C. elegans POS-1 RNA interaction – biochemical, fluorescence polarization, dose response (AID 1964);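 note: purified POS-1 fused to maltose binding protein made in E. coli; potency of compounds blocking POS-1 binding to fluorescent RNA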
T4 sequence (G5EF15 whole entry): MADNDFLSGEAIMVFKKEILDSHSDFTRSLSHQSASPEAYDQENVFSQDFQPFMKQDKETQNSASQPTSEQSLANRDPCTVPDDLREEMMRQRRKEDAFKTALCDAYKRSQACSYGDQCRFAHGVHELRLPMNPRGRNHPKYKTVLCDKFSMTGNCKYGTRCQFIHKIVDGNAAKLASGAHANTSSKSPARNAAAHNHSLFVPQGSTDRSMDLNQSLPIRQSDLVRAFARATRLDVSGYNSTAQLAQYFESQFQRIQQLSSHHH

[9] = molecular target: T5, Mitochondrial peptide methionine sulfoxide reductase (Bos taurus, UniProt P54149); assay type: functional;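 note: absorbance read-out, biochemical high-throughput dose-response screen for MsrA inhibitors, confirmatory; recombinant bovine MsrA coupled to E. coli TrxB with NADPH and selenocystamine; potency is for inhibitors of MsrA activity on DMSO substrate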
T5 sequence (P54149 whole entry): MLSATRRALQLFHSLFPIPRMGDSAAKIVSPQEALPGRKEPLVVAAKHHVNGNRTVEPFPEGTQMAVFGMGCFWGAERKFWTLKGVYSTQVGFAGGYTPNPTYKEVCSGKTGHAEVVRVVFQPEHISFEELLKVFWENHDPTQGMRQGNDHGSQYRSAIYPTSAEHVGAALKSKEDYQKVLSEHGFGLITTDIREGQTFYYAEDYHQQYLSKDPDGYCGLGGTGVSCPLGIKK

[10] = bead-based luminescence quenchers, dual-tagged ARNT – biochemical, AlphaScreen, cherry-pick, artefact control for ARNT-TACC3 interaction inhibitor project, dose response (AID 651705); assay type: functional;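 note: AlphaScreen bead proximity signal that flags compounds interfering with the detection technology; potency reflects signal decrease which marks the compound as an assay artifact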
cells [11] = assay type: functional, cell-based
Aminopeptidase N = molecular target: T6, Aminopeptidase N (Plasmodium falciparum FcB1/Columbia, UniProt O96935); assay: malaria alanyl aminopeptidase activity blockers – biochemical, fluorogenic H-Leu-NHMec substrate, 1536-well (AID 1445); parameters: species or system Plasmodium falciparum 3D7, 3D7
T6 sequence (O96935 whole entry): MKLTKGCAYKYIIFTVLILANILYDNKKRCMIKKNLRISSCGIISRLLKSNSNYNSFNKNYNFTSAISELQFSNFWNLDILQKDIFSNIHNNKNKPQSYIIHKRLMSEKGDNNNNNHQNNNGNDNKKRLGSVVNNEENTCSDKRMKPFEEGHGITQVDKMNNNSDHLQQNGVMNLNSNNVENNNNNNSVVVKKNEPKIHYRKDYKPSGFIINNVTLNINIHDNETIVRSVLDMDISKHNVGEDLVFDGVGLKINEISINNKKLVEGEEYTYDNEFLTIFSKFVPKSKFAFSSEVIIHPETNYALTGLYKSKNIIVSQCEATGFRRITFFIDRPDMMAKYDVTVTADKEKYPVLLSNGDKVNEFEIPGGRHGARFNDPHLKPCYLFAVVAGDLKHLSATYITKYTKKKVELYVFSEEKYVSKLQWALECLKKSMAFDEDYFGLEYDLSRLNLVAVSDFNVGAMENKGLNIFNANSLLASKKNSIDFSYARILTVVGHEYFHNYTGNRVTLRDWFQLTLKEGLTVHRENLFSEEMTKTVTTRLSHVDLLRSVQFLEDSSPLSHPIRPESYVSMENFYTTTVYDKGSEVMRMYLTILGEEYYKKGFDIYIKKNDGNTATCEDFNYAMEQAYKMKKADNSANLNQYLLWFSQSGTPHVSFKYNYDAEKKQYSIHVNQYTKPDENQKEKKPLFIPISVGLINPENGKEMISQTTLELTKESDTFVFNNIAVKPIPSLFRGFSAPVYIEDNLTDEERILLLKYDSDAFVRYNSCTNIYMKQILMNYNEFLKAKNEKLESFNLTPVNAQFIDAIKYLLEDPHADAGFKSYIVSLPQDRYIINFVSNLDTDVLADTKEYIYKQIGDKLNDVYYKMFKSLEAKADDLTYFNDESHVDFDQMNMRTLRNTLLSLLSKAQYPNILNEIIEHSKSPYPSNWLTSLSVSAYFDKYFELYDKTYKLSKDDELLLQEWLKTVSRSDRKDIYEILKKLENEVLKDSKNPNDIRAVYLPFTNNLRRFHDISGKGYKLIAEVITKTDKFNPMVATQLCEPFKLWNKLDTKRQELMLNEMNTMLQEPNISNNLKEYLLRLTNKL

Nonstructural protein 1 = Nonstructural protein 1 (Influenza A virus, UniProt Q194T2); assay type: functional, Influenza A virus (A/California/07/2009(H1N1))
Nonstructural protein 1, sequence (Q194T2 whole entry): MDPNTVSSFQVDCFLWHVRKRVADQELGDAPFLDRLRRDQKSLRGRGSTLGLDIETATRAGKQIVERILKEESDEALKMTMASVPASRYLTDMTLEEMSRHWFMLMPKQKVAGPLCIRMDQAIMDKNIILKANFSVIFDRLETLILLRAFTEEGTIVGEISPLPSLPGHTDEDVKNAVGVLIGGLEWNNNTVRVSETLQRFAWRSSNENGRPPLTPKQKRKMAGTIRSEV

cells [12] = assay type: functional, cell-based; remark: listed apart in the source
[13] = molecular target: T7, Microphthalmia-associated transcription factor (Homo sapiens, UniProt O75030); assay: reducers of TRPM1 reporter luminescence, concentration series – cell-based, SK-MEL-5, cherry-picked, set 3, MITF inhibitor project, dose response (AID 493073); assay type: functional;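 note: SK-MEL-5 melanoma cells with luciferase driven by the MITF target TRPM1 promoter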
T7 sequence (O75030 whole entry): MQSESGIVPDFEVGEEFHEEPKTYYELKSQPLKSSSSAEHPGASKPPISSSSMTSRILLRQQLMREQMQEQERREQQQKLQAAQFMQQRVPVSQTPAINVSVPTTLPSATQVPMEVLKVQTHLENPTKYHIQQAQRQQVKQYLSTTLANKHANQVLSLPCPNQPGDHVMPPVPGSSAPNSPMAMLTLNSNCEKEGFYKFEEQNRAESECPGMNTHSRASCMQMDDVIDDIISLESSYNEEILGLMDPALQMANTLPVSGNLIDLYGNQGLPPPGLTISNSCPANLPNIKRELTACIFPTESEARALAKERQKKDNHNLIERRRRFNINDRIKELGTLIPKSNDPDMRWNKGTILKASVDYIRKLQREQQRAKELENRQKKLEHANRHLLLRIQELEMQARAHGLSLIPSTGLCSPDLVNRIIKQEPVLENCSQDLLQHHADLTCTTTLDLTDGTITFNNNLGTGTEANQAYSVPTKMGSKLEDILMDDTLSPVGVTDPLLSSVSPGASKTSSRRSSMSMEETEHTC

[14] = molecular target: T8, Probable nicotinate-nucleotide adenylyltransferase (Staphylococcus aureus (strain N315), UniProt P65502); assay type: functional, Staphylococcus aureus subsp. aureus N315;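 for IC50 Mean: confirmatory dose-response retesting of NadD inhibitor hits first found in an ultra-high-throughput screen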
T8 sequence (P65502 whole entry): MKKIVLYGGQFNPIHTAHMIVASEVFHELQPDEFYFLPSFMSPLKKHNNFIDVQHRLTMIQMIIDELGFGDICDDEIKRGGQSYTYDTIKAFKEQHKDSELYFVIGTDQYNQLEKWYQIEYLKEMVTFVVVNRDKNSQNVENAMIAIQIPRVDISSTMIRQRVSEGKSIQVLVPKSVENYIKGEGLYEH

[15] = molecular target: T8, Probable nicotinate-nucleotide adenylyltransferase; assay type: functional, Staphylococcus aureus subsp. aureus N315; conditions: read-out: IC50_Mean

For `CC1(C)CC(=O)C=C(c2ccc3ncccc3c2)C1`, the AC50 [1] was 4.74 µM (active).

With `C#CCNc1c(C)c(C)nc2ncnn12` the IC50 [2] was 4.47 µM (active) and the IC50 [3] was 9.35 µM (active).

With `Cc1ccc2nc(-c3ccc(NC(=S)NC(=O)C(C)C)cc3)sc2c1` the CC50 [4] was > 40 µM (active), the IC50 (Melanocortin receptor 4) was > 64.6 µM (inactive) and the IC50 [5] was > 64.6 µM (inactive).

With `Cc1c(C(=O)O)cccc1-n1c(C)cc(/C=C2\C(=O)NC(=O)N(c3ccc4c(c3)OCO4)C2=O)c1C` the EC50 [6] was > 300 µM (not active), the IC50 [7] was 18 µM (active) and the EC50 [8] was > 300 µM (not active).

For `CCc1occc(=O)c1Oc1cc(NN2CCCCC2)c([N+](=O)[O-])cc1[N+](=O)[O-]`, the IC50 [9] was 119 µM (inactive).

With `O=C(CSc1ccc2nnc(-c3ccccn3)n2n1)Nc1ccc2c(c1)OCO2` the AC50 [10] was 107 µM (active).

For `CC(=O)c1ccc(N2CCN(C(=O)c3ccc(Br)cc3)CC2)c(F)c1`, the AC50 [1] was 0.182 µM (active).

With `C/C(CCC(=O)O)=N/Nc1ccc([N+](=O)[O-])cc1[N+](=O)[O-]` the IC50 [9] was 155 µM (inactive).

In the case of `O=C(Nc1ccc2nccnc2c1)c1cnccn1`, the AC50 [1] is reported as 6.04 µM (active).

For `CCCn1c2ccccc2c2cnn(CC(=O)NCCN(CC)CC)c(=O)c21`, the IC50 [2] was 3.36 µM (active) and the IC50 [3] was 5.7 µM (active).

With `O=C(N/N=C/c1cc(Br)ccc1O)C(c1ccncc1)N1CCOCC1` (stereo not drawn) the EC50 (cells [11]) was > 350 µM (not active), the IC50 (Aminopeptidase N) was 12 µM (active) and the AC50 [10] was 78.4 µM (active). For the same compound, the IC50 (Nonstructural protein 1) was 12.5 µM (active) and the EC50 (cells [12]) was 189 µM (active).

In the case of `Cc1cc(C(=O)CCl)c(C)n1CCc1ccc(F)cc1`, the AC50 [13] is reported as 4.25 µM (active), the IC50 (Melanocortin receptor 4) is reported as > 64.5 µM (inactive) and the IC50 [5] is reported as > 64.5 µM (inactive).

With `COc1ccc(Oc2c(OC)cc(NCc3ccc(CN)cc3)c3ncccc23)cc1` the IC50 [7] was 10.3 µM (active), the IC50 [14] was 7.55 µM (active) and the IC50 [15] was 41.3 µM (active).

In the case of `O=C(Nc1nnc(C2=COCCO2)o1)c1ccc([N+](=O)[O-])cc1`, the AC50 [10] is reported as 101 µM (active).

In the case of `N#C/C(=C\Nc1ccccc1O)c1nc2ccccc2o1`, the IC50 [9] is reported as 155 µM (inactive).

In the case of `O=[N+]([O-])c1cc(Br)cc(/C=N/c2ccc3c(c2)OCO3)c1O`, the IC50 [2] is reported as 10 µM (active) and the IC50 [3] is reported as 9.12 µM (active).

In the case of `O=[N+]([O-])c1cc(NS(=O)(=O)c2ccc(Cl)nc2)ccc1Cl`, the IC50 [2] is reported as 3.35 µM (active) and the IC50 [3] is reported as 2.4 µM (active).
